What was measured:
human LDL = assay: LDL oxidation determination (copper-induced, TBARS formation); assay type: biochemical; details: 3.0 μM; 4 h incubation; copper 10.0 μM
Description: The ability of these agents to inhibit LDL peroxidation was assessed in vitro following addition of copper (10.0 μM) by measuring the levels of thiobarbituric reactive substances (TBARS), a marker of lipid peroxidation. […] The EDTA content of the LDL samples obtained from human plasma was removed by gel filtration with PD-10 Sephadex […] filtration columns; PBS (nitrogen purged) was used as the eluent. The LDL samples (50 μg of protein/mL) were then preincubated with or without drug (3.0 μM) for 30 mm at 37° C. Oxidation of LDL was then induced by the addition of 10.0 μM CuSO4. The time course of LDL oxidation, measured by TBARS formation, was followed for 6 h at 37° C. ([…]. Potentiation of free radical-induced lipid peroxidative injury to sarcolemmal membranes by lipid amphiphiles. J. Biol. Chem. 1986; 261:1153-1157). […] The protein content of the LDL was determined using the Coomassie Protein Plus assay kit from Pierce Chemical. A rapid and sensitive method for the quantitation of microgram quantities of protein utilizing the principle of protein-dye binding. Anal. Biochem. 1976; 72:248-254).

[1] = Small angle X-ray diffraction analysis of membrane bilayer structure; assay type: physicochemical; details: drug to phospholipid 1:15; for overall membrane bilayer width, including surface hydration: without drug 55.5 Å
Description: The lipids (1-palmitoyl-2-oleoyl phosphatidylcholine and cholesterol) used for these samples were dissolved in HPLC-grade chloroform (10.0 mg/ml). Membrane vesicles were produced from these lipids by the same method as described for the peroxidation experiments. The final phospholipid concentration was 5.0 mg/ml buffer and the mole ratio of drug to phospholipid was 1:15. Membrane samples were oriented for diffraction analysis by subjecting them to centrifugation as previously described (Chester D W, Herbette L G, Mason R P, Joslyn A F, Triggle D J, Koppel D E. Diffusion of dihydropyridine calcium channel antagonists in cardiac sarcolemmal lipid multibilayers. Biophys. J. 1987; 52:1021–1030). Briefly, vesicles were placed in sedimentation cells that contained an aluminum foil substrate. The vesicles were sedimented in an SW-28 rotor (Beckman Instruments Fullerton, Calif.) at 35,000×g for 1.5 h at 5° C. Following centrifugation, the supernatant was removed from the pellets and the samples were then mounted on to curved glass supports. Samples were placed in sealed canisters to control relative humidity and temperature during the diffraction experiments, as previously described in detail (Chester D W, Herbette L G, Mason R P, Joslyn A F, Triggle D J, Koppel D E. Diffusion of dihydropyridine calcium channel antagonists in cardiac sarcolemmal lipid multibilayers. Biophys. J. 1987; 52: 1021–1030).
X-ray diffraction experiments were conducted by aligning the samples at grazing incidence with respect to a collimated, nickel-filtered monochromatic X-ray source (CuKα1.54 Å) produced by a high-brilliance rotating anode microfocus generator (Rigaku Rotaflex RU-200, Danvers, Mass.). The fixed geometry beam line consisted of a single, nickel-coated Franks mirror to define a line source where Kα and Kα are unresolved. […] The phases for the four-order data were determined by swelling analysis (Moody M F. X-ray diffraction pattern of nerve myelin: A method for determining the phases. Science 1963; 142:1173–117). […]

[2] = Membrane lipid peroxidation analysis (CHOD-Iodide assay) in membrane vesicles; assay type: biochemical
Description: In these experiments, oxidation occurred in a gradual, time-dependent manner that was measured spectrophotometrically over a 72 h period.
The separate and combined dose-dependent antioxidant activities of these agents were examined in membranes enriched with PUFA prepared at a 0.5 cholesterol to phospholipid mole ratio (Mason R P, Walter M F, Trumbore M W, Olmstead Jr. E G, Mason P E. Membrane antioxidant effects of the charged dihydropyridine calcium antagonist amlodipine. J. Mol Cell. Cardiol. 1999; 31:275–281). The lipid (dilinoleoyl phosphatidylcholine and cholesterol) used for these samples was dissolved in HPLC-grade chloroform (25.0 mg/ml). […]
Membrane lipid peroxidation was carried out at 37° C. in a shaking water bath without the addition of exogenous stimulants, as previously described in detail (Mason R P, Walter M F, Trumbore M W, Olmstead Jr. E G, Mason P E. Membrane antioxidant effects of the charged dihydropyridine calcium antagonist amlodipine. J. Mol. Cell. Cardiol. 1999; 31:275–281). […] The extent of membrane lipid peroxidation was measured by the CHOD-Iodide assay as previously described in detail (El-Saadani M, Esterbauer H, el-Sayed M, Goher M, Nassar A Y, Jurgens G. A spectrophotometric assay for lipid peroxides in serum lipoproteins using a commercially available reagent. J. Lipid. Res. 1989; 30:627–630). […]

Row | overall membrane bilayer width, including surface hydration [1] [Å] | Structure (SMILES) | TBARS formation compared to control lipid peroxidation (100%) (human LDL) [%] | effect on membrane dimensions, in words ([1]; includes intrabilayer headgroup separation) | persistence of antioxidant effect over time ([2]; 10.0 μM, incubation up to 72 h) | inhibition of lipid peroxidation ([2]; 100.0 nM, membrane preparation enriched with cholesterol) [%]
1 | 54.8 | CCOC(=O)C1=C(COCCN)NC(C)=C(C(=O)OC)C1c1ccccc1Cl (stereo not shown) [AML, amlodipine besylate] | 93.3±6 | did not significantly alter membrane dimensions | – | –
2 | – | Cc1c(C)c2c(c(C)c1O)CC[C@@](C)(CCC[C@H](C)CCC[C@H](C)CCCC(C)C)O2 [vitamin E, α-tocopherol] | – | – | could not be reproduced | –
3 | 58.0 | CC(C)c1c(C(=O)Nc2ccccc2O)c(-c2ccccc2)c(-c2ccc(F)cc2)n1CCC(O)CC(O)CC(=O)O (stereo not shown) [ATM, ortho-hydroxy metabolite of atorvastatin] | 65.6±7 | – | – | 9
